“And” between values parts separate entries of the source, which are not always exact repeats. Equal entries are not always repeated.
Legend:
[1] = system: human-derived tracheal/bronchial epithelial cells (EpiAirway Tissue Model); assay: in vitro
Procedure, shortened: (§1)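 EpiAirway cultures treated 1 h with each lipid; PBS as negative control. LDH released apically and basolaterally measured colorimetrically at 490 nm after 30 min substrate incubation at room temperature. Cytotoxicity expressed as percent of 1% Triton X-100 lysis control, set to 100%.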

in vitro = conditions: for cytotoxicity at 1 h, 1000 μM: % Cytotoxicity, apical LDH release
Procedure, shortened: as §1

[2] = system: human-derived tracheal/bronchial epithelial cells (EpiAirway Tissue Model); assay: FITC-Dextran permeation assay across epithelial cell monolayer; assay type: cell-based; conditions: for Mean % FD3 Permeation: FITC-dextran 3000 (Table 4); for permeation of FD3 relative to negative controls: text summary of Table 4
Procedure, shortened: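 Formulations applied apically to EpiAirway tissue inserts, shaken ~100 rpm 1.5 hours at 37 °C, with FITC-dextran (3-500 kDa) added apically. Basolateral fluorescence read at 470 nm in triplicate; result expressed as percent of FITC-dextran crossing apical to basolateral.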

[3] = system: human-derived tracheal/bronchial epithelial cells (EpiAirway Tissue Model); assay: Transepithelial electrical resistance (TER) of an epithelial cell monolayer; assay type: cell-based; conditions: for activity at 1000 µM: lower value = greater TER reduction (Table 4)
Procedure, shortened: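 EpiAirway human tracheal/bronchial epithelial tissue inserts, fed daily during recovery; resistance read with EVOM voltohmmeter in Endohm-12 chamber in MatTek medium, blank-insert background (about 5-20 ohms) measured. TER normalised to tissue surface area, expressed as Ohms*cm2 and percent of original TER; lower TER taken as enhanced permeation.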

[4] = Homo sapiens, Epithelial cell, 1 h, lipid 1000 μM, read-out: Mean % of Original TER Value

SMILES	% FITC-Dextran Permeation FD10 ([2]; lipid 1000 μM)	% FITC-Dextran Permeation FD40 ([2]; lipid 1000 μM)	% FITC-Dextran Permeation FD70 ([2]; lipid 1000 μM)	% FITC-Dextran Permeation FD500 ([2]; lipid 1000 μM)	% FITC-Dextran Permeation FD3 ([2]; lipid 1000 μM (Table 5))	% FD3 Permeation ([2]; lipid 1000 μM in Buffer I)	% FD3 Permeation ([2]; lipid 1000 μM in Buffer II)	Mean % FD3 Permeation ([2]; lipid 1000 μM)	permeation of FD3 relative to negative controls [2]	activity at 1000 µM [3, 4]	% Original TER ([3]; lipid 1000 μM in Buffer I)	% Original TER ([3]; lipid 1000 μM in Buffer II)	also measured
CCCCCCCCCCCCCCCCOC[C@@H](COP(=O)([O-])OCC[N+](C)(C)C)OC(C)=O [C16 Enantiomeric PAF, 3-O-Hexadecyl-2-Acetoyl-sn-Glycero-1-Phosphocholine]	4%	2%	1%	0%	20%	46%	23%	11%	enhanced the permeation of FD3 above that of the negative controls	1%	2%	9%	% Relative Cytotoxic Effect (LDH) ([1]; in the presence of FITC-Dextran FD3 (Table 6)): 34%; % Relative Cytotoxic Effect (LDH) ([1]; in the presence of FITC-Dextran FD10 (Table 6)): 32%; % Relative Cytotoxic Effect (LDH) ([1]; in the presence of FITC-Dextran FD40 (Table 6)): 36%; % Relative Cytotoxic Effect (LDH) ([1]; in the presence of FITC-Dextran FD70 (Table 6)): 31%; % Relative Cytotoxic Effect (LDH) ([1]; in the presence of FITC-Dextran FD500 (Table 6)): 33%; Mean % Relative Cytotoxic Effect (LDH) ([1]; lipid 1000 μM (Table 4)): 35%; cytotoxicity at 1 h, 1000 μM (in vitro; lipid 1000 μM in Buffer I): 34%; cytotoxicity at 1 h, 1000 μM (in vitro; lipid 1000 μM in Buffer II): 14%; TER reduction within 15 minutes ([3]; lipid 1000 μM, 15 minute incubation): levels equivalent to that of the Triton-X100™ control
CC(C)C[C@H](NC(=O)[C@H](C)NC(=O)[C@H](CCCCN)NC(=O)[C@H](CC(C)C)NC(=O)[C@H](C)NC(=O)[C@H](CC(C)C)NC(=O)[C@H](CCCCN)NC(=O)[C@H](CC(C)C)NC(=O)[C@H](C)NC(=O)[C@H](CC(C)C)NC(=O)[C@@H](N)CCCCN)C(=O)N[C@@H](CCCCN)C(=O)N[C@@H](C)C(=O)N[C@@H](C)C(=O)N[C@@H](CC(C)C)C(=O)N[C@@H](CCCCN)C(=O)N[C@@H](CC(C)C)C(=O)N[C@@H](C)C(N)=O [PN159, reference compound]	–	–	–	–	–	–	–	–	–	–	–	–	cytotoxicity at 1 hour, 25 μM (in vitro): 33%; % FITC-Dextran Permeation FD10 ([2]; PN159 25 μM): 4%; % FITC-Dextran Permeation FD40 ([2]; PN159 25 μM): 2%; % FITC-Dextran Permeation FD3 ([2]; PN159 25 μM (Table 5)): 7%; % Original TER ([3]; PN159 25 μM / PYY 13.67 mg/mL (High)): 10%; % of the original TER value ([3]; controls of the further test of lipids at 250 μM to 1000 μM (b219-b220)): 8%; Mean TER Reduction 1 hr. Post-treatment ([3]; positive control PN159 25 μM): 85% and 87%
C=CCC(=O)O[C@H](COCCCCCCCCCCCCCCCC)COP(=O)([O-])OCC[N+](C)(C)C [C16-04:1 PC]	8%	3%	0%	0%	25%	44%	8%	12%	enhanced the permeation of FD3 above that of the negative controls	-2%	2%	23%	Mean % Relative Cytotoxic Effect (LDH) ([1]; human, 1 h, 500 μM): 18%; Mean % Relative Cytotoxic Effect (LDH) ([1]; human, 1 h, 1000 μM): 27%; Mean % FD3 Permeation ([2]; lipid 500 μM): 6%; activity at 500 µM ([3]; Homo sapiens, Epithelial cell, 1 h, lipid 500 μM (Table 4), read-out: Mean % of Original TER Value): 11%
